Source: patent publication US11315685B2, “Method and system for predicting optimal epilepsy treatment regimes” (UCB BIOPHARMA SPRL, priority 2017, dated 2022)

These compounds were tested on epilepsy patients (assay: treatment stability of AED monotherapy in the one year evaluation period (medical claims data)). Settings: percentage of patients for which the treatment worked based on the clinician's recommendation; stable = monotherapy for at least 80% of the one year evaluation period without switching; adult epilepsy patients.
Type: in vivo
Excerpt: Step 18 may also include a substep 18e of filtering patients according to a defined target variable indicating AED treatment regime efficacy. In some preferred embodiments, the target variable is treatment stability. An aim of the present disclosure is to measure the efficacy of treatment regimens consisting of one or more AEDs. One way of measuring the efficacy of treatment would be to monitor the patient's progress with respect to seizure frequency before and after treatment. A reduction in the number of seizures would imply that the regimen is effective. […] Accordingly, method 10 defines a proxy for treatment effectiveness. Based on input from domain experts and clinicians, method 10 uses treatment stability as an indicator of the effectiveness of a particular treatment. In some preferred embodiments, a treatment regimen is considered stable for a patient if the patient satisfies a treatment change criteria and a minimum coverage criteria. […] The minimum coverage criteria is satisfied if the patient complies with the treatment regimen which has been prescribed for at least a predetermined percentage of the evaluation period. In one preferred embodiment, the minimum coverage criteria is satisfied if the patient complies with the treatment regimen which has been prescribed for at least 80% evaluation period.
If the MPR is greater than 80%, the patient can be determined to be stable for that drug.
For the unstable outcome, a treatment change occurs during the evaluation period—i.e., within […] the index date at which a first treatment regimen R1 is prescribed—in the form of a second treatment regimen R2. For the stable outcome, a treatment change—i.e., the second regimen R2—occurs after the evaluation period.
In this embodiment, for simplicity, the three aforementioned treatment categories—i.e., ADD, SWITCH and NEW—are not differentiated between when defining the index date and, in contrast to the technique in Devinsky et al., all medication claims for a patient in the baseline period before the AED-specific index date are used to train the AED-specific predictive model for the patient. In other embodiments, the treatment categories can be analyzed separately to assess the efficacy of a treatment regimen in different scenarios. In this embodiment, predictive models are built only for monotherapies, instead of for both monotherapies and combination therapies. For a particular AED, all the adult patients who have been prescribed the AED, have at least 1 year of medical history before the prescription and have at least one year of evaluation period after prescription are analyzed. As mentioned above, this subset of patients constitutes the cohort for the predictive model for the AED being analyzed and the target variable is treatment stability.
The control patients refer to the number of patients which switched to treatments other than the one being analyzed in the evaluation window and were considered unstable on that treatment regimen. The percentage baseline success rate refers to the percentage of patients for which the treatment worked based on the clinician's recommendation. The AUC refers to the area under the ROC curve or the C-statistic which is the ratio of the true positive rate (TPR) and the false positive rate (FPR) for different values of the threshold. This ratio reflects the performance of the model since a higher AUC would imply that higher TPR was achieved and more true positives were obtained than false positives.

| Structure (SMILES) | Percentage Baseline Success Rate |
| --- | --- |
| NC(=O)N1c2ccccc2C=Cc2ccccc21 [CARBAMAZEPINE] | 54.76 |
| O=C1CN=C(c2ccccc2Cl)c2cc([N+](=O)[O-])ccc2N1 [CLONAZEPAM, Clonazepam] | 30.98 |
| CN1C(=O)CN=C(c2ccccc2)c2cc(Cl)ccc21 [DIAZEPAM, Diazepam] | 25.22 |
| NCC1(CC(=O)O)CCCCC1 [GABAPENTIN, Gabapentin] | 35.69 |
| COC[C@@H](NC(C)=O)C(=O)NCc1ccccc1 [LACOSAMIDE, Lacosamide] | 37.73 |
| Nc1nnc(-c2cccc(Cl)c2Cl)c(N)n1 [LAMOTRIGINE, Lamotrigine] | 53.32 |
| CC[C@@H](C(N)=O)N1CCCC1=O [LEVETIRACETAM, Levetiracetam] | 54.99 |
| O=C1Nc2ccc(Cl)cc2C(c2ccccc2Cl)=NC1O (stereo not drawn) [LORAZEPAM, Lorazepam] | 25.28 |
| NC(=O)N1c2ccccc2CC(=O)c2ccccc21 [OXCARBAZEPINE, Oxcarbazepine] | 52.83 |
| CCC1(c2ccccc2)C(=O)NC(=O)NC1=O [PHENOBARBITAL, Phenobarbital] | 55.76 |
| O=C1NC(=O)C(c2ccccc2)(c2ccccc2)N1 [PHENYTOIN, Phenytoin] | 45.01 |
| CC(C)C[C@H](CN)CC(=O)O [PREGABALIN, Pregabalin] | 28.60 |
| CCC1(c2ccccc2)C(=O)NCNC1=O [PRIMIDONE, Primidone] | 48.94 |
| CC1(C)O[C@@H]2[C@@H](CO[C@@]3(COS(N)(=O)=O)OC(C)(C)O[C@@H]23)O1 [TOPIRAMATE, Topiramate] | 38.97 |
| NS(=O)(=O)Cc1noc2ccccc12 [ZONISAMIDE, Zonisamide] | 42.95 |
